Reference: article PMC10946806, “Development of Bifunctional, Raman Active Diyne‐Girder Stapled α‐Helical Peptides” (Chemistry (Weinheim an Der Bergstrasse, Germany), 2023)
Each block holds one compound with its values, some of them ahead of it.

How the values were obtained:
[1] = Circular dichroism (CD) spectroscopy, % helicity; format: physicochemical; settings: for percentage helicity (in words): peptide 50 μM in PBS pH 7.4, 222 nm; for percentage helicity at 222 nm from mean residue ellipticity: peptide 50 μM in PBS pH 7.4, room temperature, MRE at 222 nm converted by Equation S2
Description: Circular dichroism (CD): CD spectra were obtained using a JASCO J-810 CD spectrometer. […] Percentage helicities can be calculated for α-helical peptides. […] […] Equation S1. MRE calculation. […] To 100 μL of peptide solution was added 100 11

[2] = on-resin Glaser oxidative coupling of two terminal alkynes (i,i+7 side chains) to 1,3-diyne; CuCl 5 eq, 4,4'-bis(hydroxymethyl)-2,2'-bipyridine 7.5 eq, DIPEA 20 eq, microwave; settings: the molecule shown is the open-chain precursor, DMF, 10.0 mM, 60.0 °C, 3.0 h

percentage helicity (in words) [1]: high
Compound: FTU-Ahx-AKS8YAR(Nle)GRS8LKEIAK-NH2 (sidechain bridge or staple) [compound 33, diyne-girder stapled T-STAR peptide, C16 bridge, SS]

Compound: C#CCCCCCC[C@@](C)(NC(=O)[C@H](CCCCNC(=O)OC(C)(C)C)NC(=O)[C@H](C)NC(=O)CCCCCNC(=O)OCC1c2ccccc2-c2ccccc21)C(=O)N[C@@H](Cc1ccc(OC(C)(C)C)cc1)C(=O)N[C@@H](C)C(=O)N[C@@H](CCCNC(=N)NS(=O)(=O)c1c(C)c(C)c2c(c1C)CC(C)(C)O2)C(=O)N[C@@H](CCCC)C(=O)NCC(=O)N[C@@H](CCCNC(=N)NS(=O)(=O)c1c(C)c(C)c2c(c1C)CC(C)(C)O2)C(=O)N[C@@](C)(CCCCCCC#C)C(=O)N[C@@H](CC(C)C)C(=O)N[C@@H](CCCCNC(=O)OC(C)(C)C)C(=O)N[C@@H](CCC(=O)OC(C)(C)C)C(=O)N[C@H](C(=O)N[C@@H](C)C(=O)N[C@@H](CCCCNC(=O)OC(C)(C)C)C(N)=O)[C@@H](C)CC
ring closure, conversion by HPLC ([2]; 38-membered ring): 100%

Compound: C#CCCCCC[C@H](NC(=O)[C@H](CCCNC(=N)NS(=O)(=O)c1c(C)c(C)c2c(c1C)CC(C)(C)O2)NC(=O)CNC(=O)[C@H](CCCC)NC(=O)[C@H](CCCNC(=N)NS(=O)(=O)c1c(C)c(C)c2c(c1C)CC(C)(C)O2)NC(=O)[C@H](C)NC(=O)[C@H](Cc1ccc(OC(C)(C)C)cc1)NC(=O)[C@H](CCCCCC#C)NC(=O)[C@H](CCCCNC(=O)OC(C)(C)C)NC(=O)[C@H](C)NC(=O)CCCCCNC(=O)OCC1c2ccccc2-c2ccccc21)C(=O)N[C@@H](CC(C)C)C(=O)N[C@@H](CCCCNC(=O)OC(C)(C)C)C(=O)N[C@@H](CCC(=O)OC(C)(C)C)C(=O)N[C@H](C(=O)N[C@@H](C)C(=O)N[C@@H](CCCCNC(=O)OC(C)(C)C)C(N)=O)[C@@H](C)CC
ring closure, conversion by HPLC ([2]; 36-membered ring): 38%

Compound: C#CCCCCCC[C@@](C)(NC(=O)[C@H](CCCNC(=N)NS(=O)(=O)c1c(C)c(C)c2c(c1C)CC(C)(C)O2)NC(=O)CNC(=O)[C@H](CCCC)NC(=O)[C@H](CCCNC(=N)NS(=O)(=O)c1c(C)c(C)c2c(c1C)CC(C)(C)O2)NC(=O)[C@H](C)NC(=O)[C@H](Cc1ccc(OC(C)(C)C)cc1)NC(=O)[C@](C)(CCCCCCC#C)NC(=O)[C@H](CCCCNC(=O)OC(C)(C)C)NC(=O)[C@H](C)NC(=O)CCCCCNC(=O)OCC1c2ccccc2-c2ccccc21)C(=O)N[C@@H](CC(C)C)C(=O)N[C@@H](CCCCNC(=O)OC(C)(C)C)C(=O)N[C@@H](CCC(=O)OC(C)(C)C)C(=O)N[C@H](C(=O)N[C@@H](C)C(=O)N[C@@H](CCCCNC(=O)OC(C)(C)C)C(N)=O)[C@@H](C)CC
ring closure, conversion by HPLC ([2]; 38-membered ring): 68%

Compound: C#CCCCCCC[C@@](C)(NC(=O)[C@H](CCCCNC(=O)OC(C)(C)C)NC(=O)[C@H](C)NC(=O)CCCCCNC(=O)OCC1c2ccccc2-c2ccccc21)C(=O)N[C@@H](Cc1ccc(OC(C)(C)C)cc1)C(=O)N[C@@H](C)C(=O)N[C@@H](CCCNC(=N)NS(=O)(=O)c1c(C)c(C)c2c(c1C)CC(C)(C)O2)C(=O)N[C@@H](CCCC)C(=O)NCC(=O)N[C@@H](CCCNC(=N)NS(=O)(=O)c1c(C)c(C)c2c(c1C)CC(C)(C)O2)C(=O)N[C@](C)(CCCCCCC#C)C(=O)N[C@@H](CC(C)C)C(=O)N[C@@H](CCCCNC(=O)OC(C)(C)C)C(=O)N[C@@H](CCC(=O)OC(C)(C)C)C(=O)N[C@H](C(=O)N[C@@H](C)C(=O)N[C@@H](CCCCNC(=O)OC(C)(C)C)C(N)=O)[C@@H](C)CC
ring closure, conversion by HPLC ([2]; 38-membered ring): 93%

percentage helicity (in words) [1]: high
Compound: FTU-Ahx-AKR8YAR(Nle)GRS8LKEIAK-NH2 (sidechain bridge or staple) [compound 35, diyne-girder stapled T-STAR peptide, C16 bridge, RS]

Compound: C#CCCCCC[C@@](C)(NC(=O)[C@H](CCCNC(=N)NS(=O)(=O)c1c(C)c(C)c2c(c1C)CC(C)(C)O2)NC(=O)CNC(=O)[C@H](CCCC)NC(=O)[C@H](CCCNC(=N)NS(=O)(=O)c1c(C)c(C)c2c(c1C)CC(C)(C)O2)NC(=O)[C@H](C)NC(=O)[C@H](Cc1ccc(OC(C)(C)C)cc1)NC(=O)[C@](C)(CCCCCC#C)NC(=O)[C@H](CCCCNC(=O)OC(C)(C)C)NC(=O)[C@H](C)NC(=O)CCCCCNC(=O)OCC1c2ccccc2-c2ccccc21)C(=O)N[C@@H](CC(C)C)C(=O)N[C@@H](CCCCNC(=O)OC(C)(C)C)C(=O)N[C@@H](CCC(=O)OC(C)(C)C)C(=O)N[C@H](C(=O)N[C@@H](C)C(=O)N[C@@H](CCCCNC(=O)OC(C)(C)C)C(N)=O)[C@@H](C)CC
ring closure, conversion by HPLC ([2]; 36-membered ring): 52%

Compound: C#CCCCCC[C@@](C)(NC(=O)[C@H](CCCCNC(=O)OC(C)(C)C)NC(=O)[C@H](C)NC(=O)CCCCCNC(=O)OCC1c2ccccc2-c2ccccc21)C(=O)N[C@@H](Cc1ccc(OC(C)(C)C)cc1)C(=O)N[C@@H](C)C(=O)N[C@@H](CCCNC(=N)NS(=O)(=O)c1c(C)c(C)c2c(c1C)CC(C)(C)O2)C(=O)N[C@@H](CCCC)C(=O)NCC(=O)N[C@@H](CCCNC(=N)NS(=O)(=O)c1c(C)c(C)c2c(c1C)CC(C)(C)O2)C(=O)N[C@](C)(CCCCCC#C)C(=O)N[C@@H](CC(C)C)C(=O)N[C@@H](CCCCNC(=O)OC(C)(C)C)C(=O)N[C@@H](CCC(=O)OC(C)(C)C)C(=O)N[C@H](C(=O)N[C@@H](C)C(=O)N[C@@H](CCCCNC(=O)OC(C)(C)C)C(N)=O)[C@@H](C)CC
ring closure, conversion by HPLC ([2]; 36-membered ring): 68%

percentage helicity at 222 nm from mean residue ellipticity [1]: 54%
Compound: FTU-Ahx-AKS7YAR(Nle)GRR7LKEIAK-NH2 (sidechain bridge or staple) [compound 32, diyne-girder stapled T-STAR peptide, C14 bridge, SR]

percentage helicity at 222 nm from mean residue ellipticity [1]: 40%
Compound: FTU-Ahx-AKR7YAR(Nle)GRR7LKEIAK-NH2 (sidechain bridge or staple) [compound 30, diyne-girder stapled T-STAR peptide, C14 bridge, RR]

Compound: C#CCCCC[C@](C)(NC(=O)[C@H](CCCCNC(=O)OC(C)(C)C)NC(=O)[C@H](C)NC(=O)CCCCCNC(=O)OCC1c2ccccc2-c2ccccc21)C(=O)N[C@@H](Cc1ccc(OC(C)(C)C)cc1)C(=O)N[C@@H](C)C(=O)N[C@@H](CCCNC(=N)NS(=O)(=O)c1c(C)c(C)c2c(c1C)CC(C)(C)O2)C(=O)N[C@@H](CCCC)C(=O)NCC(=O)N[C@@H](CCCNC(=N)NS(=O)(=O)c1c(C)c(C)c2c(c1C)CC(C)(C)O2)C(=O)N[C@@](C)(CCCCC#C)C(=O)N[C@@H](CC(C)C)C(=O)N[C@@H](CCCCNC(=O)OC(C)(C)C)C(=O)N[C@@H](CCC(=O)OC(C)(C)C)C(=O)N[C@H](C(=O)N[C@@H](C)C(=O)N[C@@H](CCCCNC(=O)OC(C)(C)C)C(N)=O)[C@@H](C)CC
ring closure, conversion by HPLC ([2]; 34-membered ring): 65%

Compound: C#CCCC[C@](C)(NC(=O)[C@H](CCCCNC(=O)OC(C)(C)C)NC(=O)[C@H](C)NC(=O)CCCCCNC(=O)OCC1c2ccccc2-c2ccccc21)C(=O)N[C@@H](Cc1ccc(OC(C)(C)C)cc1)C(=O)N[C@@H](C)C(=O)N[C@@H](CCCNC(=N)NS(=O)(=O)c1c(C)c(C)c2c(c1C)CC(C)(C)O2)C(=O)N[C@@H](CCCC)C(=O)NCC(=O)N[C@@H](CCCNC(=N)NS(=O)(=O)c1c(C)c(C)c2c(c1C)CC(C)(C)O2)C(=O)N[C@@](C)(CCCC#C)C(=O)N[C@@H](CC(C)C)C(=O)N[C@@H](CCCCNC(=O)OC(C)(C)C)C(=O)N[C@@H](CCC(=O)OC(C)(C)C)C(=O)N[C@H](C(=O)N[C@@H](C)C(=O)N[C@@H](CCCCNC(=O)OC(C)(C)C)C(N)=O)[C@@H](C)CC
ring closure, conversion by HPLC ([2]; 32-membered ring): 52%

Compound: C#CCCCCC[C@@](C)(NC(=O)[C@H](CCCCNC(=O)OC(C)(C)C)NC(=O)[C@H](C)NC(=O)CCCCCNC(=O)OCC1c2ccccc2-c2ccccc21)C(=O)N[C@@H](Cc1ccc(OC(C)(C)C)cc1)C(=O)N[C@@H](C)C(=O)N[C@@H](CCCNC(=N)NS(=O)(=O)c1c(C)c(C)c2c(c1C)CC(C)(C)O2)C(=O)N[C@@H](CCCC)C(=O)NCC(=O)N[C@@H](CCCNC(=N)NS(=O)(=O)c1c(C)c(C)c2c(c1C)CC(C)(C)O2)C(=O)N[C@@](C)(CCCCCC#C)C(=O)N[C@@H](CC(C)C)C(=O)N[C@@H](CCCCNC(=O)OC(C)(C)C)C(=O)N[C@@H](CCC(=O)OC(C)(C)C)C(=O)N[C@H](C(=O)N[C@@H](C)C(=O)N[C@@H](CCCCNC(=O)OC(C)(C)C)C(N)=O)[C@@H](C)CC
ring closure, conversion by HPLC ([2]; 36-membered ring): 94%

Compound: C#CCCCCCC[C@](C)(NC(=O)[C@H](CCCCNC(=O)OC(C)(C)C)NC(=O)[C@H](C)NC(=O)CCCCCNC(=O)OCC1c2ccccc2-c2ccccc21)C(=O)N[C@@H](Cc1ccc(OC(C)(C)C)cc1)C(=O)N[C@@H](C)C(=O)N[C@@H](CCCNC(=N)NS(=O)(=O)c1c(C)c(C)c2c(c1C)CC(C)(C)O2)C(=O)N[C@@H](CCCC)C(=O)NCC(=O)N[C@@H](CCCNC(=N)NS(=O)(=O)c1c(C)c(C)c2c(c1C)CC(C)(C)O2)C(=O)N[C@@](C)(CCCCCCC#C)C(=O)N[C@@H](CC(C)C)C(=O)N[C@@H](CCCCNC(=O)OC(C)(C)C)C(=O)N[C@@H](CCC(=O)OC(C)(C)C)C(=O)N[C@H](C(=O)N[C@@H](C)C(=O)N[C@@H](CCCCNC(=O)OC(C)(C)C)C(N)=O)[C@@H](C)CC
ring closure, conversion by HPLC ([2]; 38-membered ring): 100%

Compound: C#CCCCCC[C@](C)(NC(=O)[C@H](CCCCNC(=O)OC(C)(C)C)NC(=O)[C@H](C)NC(=O)CCCCCNC(=O)OCC1c2ccccc2-c2ccccc21)C(=O)N[C@@H](Cc1ccc(OC(C)(C)C)cc1)C(=O)N[C@@H](C)C(=O)N[C@@H](CCCNC(=N)NS(=O)(=O)c1c(C)c(C)c2c(c1C)CC(C)(C)O2)C(=O)N[C@@H](CCCC)C(=O)NCC(=O)N[C@@H](CCCNC(=N)NS(=O)(=O)c1c(C)c(C)c2c(c1C)CC(C)(C)O2)C(=O)N[C@@](C)(CCCCCC#C)C(=O)N[C@@H](CC(C)C)C(=O)N[C@@H](CCCCNC(=O)OC(C)(C)C)C(=O)N[C@@H](CCC(=O)OC(C)(C)C)C(=O)N[C@H](C(=O)N[C@@H](C)C(=O)N[C@@H](CCCCNC(=O)OC(C)(C)C)C(N)=O)[C@@H](C)CC
ring closure, conversion by HPLC ([2]; 36-membered ring): 100%
